# Source: ChEMBL document CHEMBL1156482, “Molecular mechanism of action of monocyclam versus bicyclam non-peptide antagonists in the CXCR4 chemokine receptor” (J Biol Chem, 2007)
# Active and inactive are the calls of the source. The rule behind the calls is not given here.
# How the values were obtained:
# [1] = target: C-X-C chemokine receptor type 4 (Homo sapiens, UniProt P61073, H281A); assay: (§1) Displacement of [125I]12G5 antibody from transmembrane domain 7 of human CXCR4 H281A mutant expressed in COS7 cells; format: cell-based, COS-7
# Sequence of C-X-C chemokine receptor type 4 (Homo sapiens, UniProt P61073, H281A) (P61073 whole entry H281A, the tested form may be a part): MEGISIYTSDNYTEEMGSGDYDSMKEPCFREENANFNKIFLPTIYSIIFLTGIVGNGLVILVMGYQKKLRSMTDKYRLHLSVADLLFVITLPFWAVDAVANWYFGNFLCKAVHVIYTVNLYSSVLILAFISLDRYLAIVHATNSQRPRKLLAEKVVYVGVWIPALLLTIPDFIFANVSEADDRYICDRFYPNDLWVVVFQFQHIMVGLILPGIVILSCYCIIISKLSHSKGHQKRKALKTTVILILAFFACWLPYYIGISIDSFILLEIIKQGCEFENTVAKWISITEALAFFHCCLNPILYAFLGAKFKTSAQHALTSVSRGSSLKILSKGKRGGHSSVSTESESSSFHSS
# [2] = tested on: C-X-C chemokine receptor type 4 (Homo sapiens), P61073 [H281A]; assay: as §1; format: cell-based; conditions: COS-7
# Sequence of C-X-C chemokine receptor type 4 (Homo sapiens), P61073 [H281A] (P61073 whole entry H281A): as the sequence (P61073 whole entry H281A, the tested form may be a part) above
# [3] = tested on: C-X-C chemokine receptor type 4 (Homo sapiens), P61073 [I259W]; assay: (§2) Antagonist activity at human CXCR4 I259W mutant expressed in COS7 cells coexpressing G protein Gqi4myr assessed as inhibition of CXCL12-induced phosphatidylinositol turnover; format: functional, cell-based; conditions: COS-7
# Sequence of C-X-C chemokine receptor type 4 (Homo sapiens), P61073 [I259W] (P61073 whole entry I259W): as the sequence (P61073 whole entry H281A, the tested form may be a part) above, with I259W, A281H counted along it
# [4] = target: C-X-C chemokine receptor type 4 (Homo sapiens, UniProt P61073, I259W); assay: as §2; format: functional, cell-based, COS-7
# Sequence of C-X-C chemokine receptor type 4 (Homo sapiens, UniProt P61073, I259W) (P61073 whole entry I259W): as the sequence (P61073 whole entry H281A, the tested form may be a part) above, with I259W, A281H counted along it
# [5] = tested on: Human immunodeficiency virus 1; assay: Antiviral activity against HIV1 clinical isolate 10 infected in U87.CD4 cells expressing human CXCR4 D171N mutant; format: functional, organism-based; conditions: Human immunodeficiency virus 1, U87.CD4
# [6] = target: C-X-C chemokine receptor type 4 (Homo sapiens, UniProt P61073, D171N); assay: (§3) Antagonist activity at human CXCR4 D171N mutant expressed in COS7 cells coexpressing G protein Gqi4myr assessed as inhibition of CXCL12-induced phosphatidylinositol turnover; format: functional, cell-based, COS-7
# Sequence of C-X-C chemokine receptor type 4 (Homo sapiens, UniProt P61073, D171N) (P61073 whole entry D171N): as the sequence (P61073 whole entry H281A, the tested form may be a part) above, with D171N, A281H counted along it
# [7] = tested on: C-X-C chemokine receptor type 4 (Homo sapiens), P61073 [D171N]; assay: as §3; format: functional, cell-based; conditions: COS-7
# Sequence of C-X-C chemokine receptor type 4 (Homo sapiens), P61073 [D171N] (P61073 whole entry D171N): as the sequence (P61073 whole entry H281A, the tested form may be a part) above, with D171N, A281H counted along it
# [8] = tested on: Human immunodeficiency virus 1; assay: Antiviral activity against HIV1 NL43 infected in U87.CD4 cells expressing human CXCR4 D171N/D262N mutant; format: functional, organism-based
# [9] = target: C-X-C chemokine receptor type 4 (Homo sapiens, UniProt P61073, D262N); assay: (§4) Antagonist activity at human CXCR4 D262N mutant expressed in COS7 cells coexpressing G protein Gqi4myr assessed as inhibition of CXCL12-induced phosphatidylinositol turnover; format: functional, cell-based, COS-7
# Sequence of C-X-C chemokine receptor type 4 (Homo sapiens, UniProt P61073, D262N) (P61073 whole entry D262N): as the sequence (P61073 whole entry H281A, the tested form may be a part) above, with D262N, A281H counted along it
# [10] = tested on: C-X-C chemokine receptor type 4 (Homo sapiens), P61073 [D262N]; assay: as §4; format: functional, cell-based; conditions: COS-7
# Sequence of C-X-C chemokine receptor type 4 (Homo sapiens), P61073 [D262N] (P61073 whole entry D262N): as the sequence (P61073 whole entry H281A, the tested form may be a part) above, with D262N, A281H counted along it
# [11] = target: C-X-C chemokine receptor type 4 (Homo sapiens, UniProt P61073, E288A); assay: (§5) Antagonist activity at human CXCR4 E288A mutant expressed in COS7 cells coexpressing G protein Gqi4myr assessed as inhibition of CXCL12-induced phosphatidylinositol turnover; format: functional, cell-based, COS-7
# Sequence of C-X-C chemokine receptor type 4 (Homo sapiens, UniProt P61073, E288A) (P61073 whole entry E288A): as the sequence (P61073 whole entry H281A, the tested form may be a part) above, with A281H, E288A counted along it
# [12] = tested on: C-X-C chemokine receptor type 4 (Homo sapiens), P61073 [E288A]; assay: as §5; format: functional, cell-based; conditions: COS-7
# Sequence of C-X-C chemokine receptor type 4 (Homo sapiens), P61073 [E288A] (P61073 whole entry E288A): as the sequence (P61073 whole entry H281A, the tested form may be a part) above, with A281H, E288A counted along it
# [13] = tested on: Human immunodeficiency virus 1; assay: Antiviral activity against HIV1 NDK infected in U87.CD4 cells expressing human CXCR4 D171ND262N mutant; format: functional, organism-based; conditions: Human immunodeficiency virus 1, NDK
# [14] = tested on: C-X-C chemokine receptor type 4 (Homo sapiens), P61073 [G207F]; assay: (§6) Displacement of [125I]12G5 antibody from transmembrane domain 5 of human CXCR4 G207F mutant expressed in COS7 cells; format: cell-based; conditions: COS-7
# Sequence of C-X-C chemokine receptor type 4 (Homo sapiens), P61073 [G207F] (P61073 whole entry G207F, the tested form may be a part): as the sequence (P61073 whole entry H281A, the tested form may be a part) above, with G207F, A281H counted along it
# [15] = target: C-X-C chemokine receptor type 4 (Homo sapiens, UniProt P61073, G207F); assay: as §6; format: cell-based, COS-7
# Sequence of C-X-C chemokine receptor type 4 (Homo sapiens, UniProt P61073, G207F) (P61073 whole entry G207F, the tested form may be a part): as the sequence (P61073 whole entry H281A, the tested form may be a part) above, with G207F, A281H counted along it
# [16] = tested on: C-X-C chemokine receptor type 4 (Homo sapiens), P61073 [H113A]; assay: (§7) Displacement of [125I]12G5 antibody from transmembrane domain 3 of human CXCR4 H113A mutant expressed in COS7 cells; format: cell-based; conditions: COS-7
# Sequence of C-X-C chemokine receptor type 4 (Homo sapiens), P61073 [H113A] (P61073 whole entry H113A, the tested form may be a part): as the sequence (P61073 whole entry H281A, the tested form may be a part) above, with H113A, A281H counted along it
# [17] = target: C-X-C chemokine receptor type 4 (Homo sapiens, UniProt P61073, H113A); assay: as §7; format: cell-based, COS-7
# Sequence of C-X-C chemokine receptor type 4 (Homo sapiens, UniProt P61073, H113A) (P61073 whole entry H113A): as the sequence (P61073 whole entry H281A, the tested form may be a part) above, with H113A, A281H counted along it
# [18] = tested on: Human immunodeficiency virus 1; assay: Antiviral activity against HIV1 clinical isolate 10 infected in U87.CD4 cells expressing human wild type CXCR4; format: functional, organism-based; conditions: Human immunodeficiency virus 1, U87.CD4
smiles,measurement,setting,value
c1ccc(CNCc2ccc(CN3CCCNCCNCCCNCC3)cc2)nc1,Ki,[1],519 µM
same,logKi,[2],-3.29
same,logIC50,[3],-7.08
same,Ki,[4],0.08 µM
same,IC50,[5],183 µM
same,Ki,[6],0.18 µM
same,logIC50,[7],-6.76
same,Activity,[8],Active
same,Ki,[9],7.8 µM
same,logIC50,[10],-5.11
same,Ki,[11],1.9 µM
same,logIC50,[12],-5.17
same,IC50,[13],4.64 µM
same,logKi,[14],-6.81
same,Ki,[15],0.16 µM
same,logKi,[16],-5.6
same,Ki,[17],2.5 µM
same,IC50,[18],4.7 µM
